The test system of data set [1] is C57BL/KsJ db/+ and C57BL/KsJ db/db mice. The data set can be described thus: Effect of isobutyl cyanoacrylate on hair growth, topical. It is filed as in vivo, mouse. Particulars: for Hair growth: 10 μl cm^−2 topical. How it is done: The following experiment was performed to identify the effect of isobutyl cyanoacrylate, a structural analog of n-butyl cyanoacrylate, on hair growth. The shaved backs of C57BL/KsJ db/+ and C57BL/KsJ db/db mice were treated topically at a dose of 10 μl cm^−2 with either isobutyl cyanoacrylate (Sigma Chemical Co., St Louis, Mo.) or n-butyl cyanoacrylate.

For data set [2] the test system is unchanged. The data set can be described thus: Effect of isobutyl cyanoacrylate on hair growth, topical. It is filed as in vivo, mouse.
In the next data set the test system is C57BL/KsJ db/+ mice. How it is done: The induction of hair loss following treatment with certain anticancer drugs, such as cyclophosphamide or doxorubicin, is well documented (A. Tierney & J. Taylor (1991) Nurs. Stand 5:29-31; R. R. Love, et al. (1989) Cancer 63:604-612; B. W. Cline (1984) Cancer Nurs. 7:221-228). The following experiment was performed to determine the effect of n-butyl cyanoacrylate on hair regrowth in mice pre-treated with cyclophosphamide or doxorubicin. Twenty mice of strain C57BL/KsJ db/+ were peritoneally injected with either cyclophosphamide in PBS (20 mg per kilogram of body weight) or Doxorubicin in PBS (2 mg per kilogram of body weight) for 10 consecutive days. Then a single 10 μl dose of n-butyl cyanoacrylate was applied topically to an area of the shaved dorsum of each animal. Control mice, which were injected with PBS alone, were treated similarly. The effects of hair regrowth were determined both by phototrichogram (macroscopic observation using photography) and by folliculogram (microscopic observation of histological changes in the treated and untreated skin).

The subject of the next data set is hair growth. The data set can be described thus: Hair growth stimulation by comparison agents. The conditions noted are these: in vivo.

Read-outs that look alike come from different tables or passages of the source.

Consider `C=C(C#N)C(=O)OCC(C)C` [isobutyl cyanoacrylate], for which the Hair growth in data set [1] (C57BL/KsJ db/+) is on record as 3+ (high hair regeneration with an area larger than 50% of the treated area). Also, in data set [1] (C57BL/KsJ db/db), the Hair growth is listed as 3+ (high hair regeneration with an area larger than 50% of the treated area). Further, the “hair growth response compared with that of n-butyl cyanoacrylate” value in data set [1] (both strains) is reported as “nearly identical”. In addition, in data set [1] (both strains, post treatment), the “time at which hair growth was visible” value lay within 8 to 12 days, the “time at which hair reached full length” value was in the range of 15 to 18 days and the “time at which many new hair follicles occurred in treated area” value fell in the range of 2 to 3 days. In addition, the “response compared with hair growth induced by n-butyl cyanoacrylate” value in the data set on mice and rats (mice and rats) is “very similar”. For the same compound, the “hair growth in normal intact skin, in skin of animals pre-treated with anticancer drugs, and at edges of wounds” value in the data set with mice and rats (two species (rat and mouse), seven strains of mouse) is on record as “stimulate hair growth”. Besides, in data set [2] (C57BL/KsJ +/+ mouse, 19 days post application), the “hair growth on dorsum (photograph)” value is listed as ““T” pattern of hair growth”. Also, in data set [2] (several strains of mice), the “hair growth response to formulation with about 0.01% monomethyl hydroquinone” value was “positive response”.
Take `COc1cccc2c1C(=O)c1c(O)c3c(c(O)c1C2=O)C[C@@](O)(C(=O)CO)C[C@@H]3O[C@H]1C[C@H](N)[C@H](O)[C@H](C)O1` [doxorubicin, reference compound]: the “pigmentation of new hair and skin in pre-treated animals” value with C57BL/KsJ db/+ mice (mouse, in vivo) was “normal pigmentation”.
Take `O=P1(N(CCCl)CCCl)NCCCO1` (stereo not shown) [cyclophosphamide, reference compound]: in the data set with C57BL/KsJ db/+ mice (pre-treatment with the anticancer drug, then topical n-butyl cyanoacrylate), the “pigmentation of new hair and skin in pre-treated animals” value was “lack of pigmentation in the new growth hairs”.
With `CCCCOC(=O)CCCCCCCCC(=O)OCCCC` [sebacic acid dibutyl ester], in the data set with hair growth, the “stimulation of hair growth” value is “not effective in stimulating hair growth”.

These data come from US20020065314A1, “COMPOSITIONS AND METHOD FOR STIMULATING HAIR GROWTH” (priority 1995, published 2002).
